Results on one molecule are retold here after patent US9149543B2, “Methods and models for rapid, widespread delivery of genetic material to the CNS using non-viral, cationic lipid-mediated vectors” (The Trustees of the University of Pennsylvania, priority 2005, dated 2015).

A short description of this data set: DNA protection assay of DMDK lipoplex against DNase and human CSF (agarose gel). The settings on record: lipoplex incubated with DNAses or human CSF in vitro. The format is in vitro ADME. The protocol: Naked DNA and DMDK/DNA complexes were incubated at 37° C. for thirty minutes with 1 μl of RQ1 RNase-Free DNase and 10× Reaction Buffer (Promega, Madison, Wis.). One unit of RQ1 RNase-Free DNase (1 unit/μl) is defined as the amount required to completely degrade 1 μg of lambda DNA in 10 minutes at 37° C. in 50 μl of a buffered solution. After 30 minutes of incubation, aliquots were removed and used for transfection or phenol/chloroform extraction.
Incubation and transfection were also carried out in human CSF, obtained under an approved IRB protocol at the University of Pennsylvania, wherein CSF was collected under sterile conditions at the Hospital of the University of Pennsylvania during the normal course of pre-operative spinal anesthetic administration.
An equal volume of phenol/chlororform/isoamyl alcohol was added to the DNA solution. This solution was vortexed for 10 seconds, briefly centrifuged, and the aqueous layer removed and placed in a new tube. 1/10 volume of 3M sodium acetate was added and then vortexed. Next, 2.5 volumes of ice-cold 100% EtOH was added, vortexed and placed in a −70° C. freezer for 15 minutes. The solution was then microcentrifuged for 5 minutes at maximum speed, and the supernatant was removed. 1 ml of 70% EtOH (room temperature) was added, and centrifuged for 5 minutes at maximum speed. The supernatant was removed and the pellet dried. […]

Regarding `CCCCCCCCCCCCCCC(=O)C(=O)CCCCCCCCCCCCCC` [DMDK, Dimyristyl Diketone], the “protection of plasmid DNA from degradation from DNAses or from human cerebral spinal fluid” value is on record as “effectively protect plasmid DNA from degradation”.
